Assay: molar heat capacity at constant pressure
Settings: 101.33 kPa, Crystal, Vacuum adiabatic calorimetry

O=C([O-])c1cnccn1.O=C([O-])c1cnccn1.O=C([O-])c1cnccn1.[Cr+3] [chromium(III) pyrazine-2-carboxylate]
Settings	molar heat capacity at constant pressure [J/K/mol]
78.86 K	155.98
80 K	158.16
80.64 K	158.92
83.3 K	162.11
85 K	164.76
85.88 K	166.03
88.38 K	169.59
90 K	171.35
90.8 K	172.28
93.14 K	175.35
95 K	177.94
95.47 K	178.53
97.73 K	181.47
99.91 K	184.54
100 K	184.53
102.06 K	187.64
104.19 K	189.79
105 K	191.12
106.26 K	192.72
108.39 K	195.56
110 K	197.7
110.39 K	198.32
112.38 K	200.9
114.31 K	203.62
115 K	204.28
116.37 K	206.2
118.23 K	208.83
120 K	210.86
120.16 K	211.45
122.08 K	214.08
125 K	217.43
125.04 K	217.8
128.55 K	221.83
130 K	223.99
131.51 K	226.29
134.47 K	230.41
135 K	230.55
137.5 K	234.21
140 K	237.1
140.45 K	237.72
143.48 K	241.61
145 K	243.64
146.44 K	245.42
149.4 K	249.27
150 K	250.18
152.43 K	252.82
155 K	256.7
155.38 K	257.11
158.34 K	260.91
160 K	263.21
161.37 K	264.59
164.4 K	269.32
165 K	269.71
167.42 K	273.11
170 K	276.2
170.38 K	276.93
173.34 K	280.52
175 K	282.68
176.44 K	284.26
179.4 K	287.73
180 K	289.15
182.42 K	292.31
185 K	295.6
186.48 K	297.74
190 K	302.03
190.68 K	302.64
193.71 K	306.32
195 K	308.46
196.73 K	310.4
199.76 K	313.83
200 K	314.86
202.79 K	317.64
205 K	321.25
205.75 K	321.74
208.71 K	325.63
210 K	327.63
211.73 K	329.9
214.76 K	333.75
215 K	333.98
217.79 K	337.53
220 K	340.32
220.81 K	341.42
223.77 K	344.95
225 K	346.64
226.8 K	348.56
229.76 K	352.76
230 K	352.95
232.79 K	356.86
235 K	359.23
235.75 K	360.47
238.84 K	363.97
240 K	365.49
242.01 K	368.73
245 K	371.73
245.86 K	373.07
249.57 K	377.69
250 K	377.95
252.6 K	381.55
255 K	384.15
255.7 K	385.19
258.73 K	388.65
260 K	390.33
261.82 K	392.4
264.85 K	396.6
265 K	396.49
267.86 K	400.48
270 K	402.62
270.92 K	403.75
273.93 K	407.18
275 K	408.73
276.89 K	410.85
279.85 K	414.48
280 K	414.81
282.87 K	418.25
285 K	420.87
285.83 K	421.97
288.79 K	425.74
290 K	426.91
291.89 K	428.76
294.92 K	432.73
295 K	432.92
297.94 K	436.5
298.15 K	436.69
300 K	438.9
300.28 K	439.48
302.83 K	442.7
305 K	444.86
305.99 K	446.12
309.09 K	450.09
310 K	450.79
312.18 K	454.16
315 K	456.7
315.35 K	457.58
318.38 K	461.21
320 K	462.57
321.54 K	464.38
324.64 K	468.15
325 K	468.42
327.67 K	471.32
330 K	474.25
330.76 K	475.09
333.79 K	478.57
335 K	480.04
336.88 K	481.84
339.91 K	485.31
340 K	485.8
343.01 K	488.64
345 K	491.54
345.97 K	491.76
349.05 K	495.84
350 K	497.25
352.03 K	499.11
355 K	502.92
355.1 K	502.61
358.14 K	506.45
360 K	508.57
361.31 K	510.02
364.47 K	513.54
365 K	514.18
367.57 K	517.31
370 K	519.77
370.74 K	520.43
373.88 K	524.09
375 K	525.32
377.03 K	527.59
380 K	530.85
380.17 K	530.85
383.23 K	534.71
385 K	536.34
386.16 K	537.95
389.19 K	541.27
390 K	541.8
392.45 K	544.56
395 K	547.22
395.47 K	547.81
400 K	552.62

Reference: the NIST ThermoML archive (doi:10.1016/j.tca.2012.05.023)
